# Assay results published in US4606911A, “Pharmaceutical composition for the prevention of dental caries” (Rohto Pharmaceutical Co. Ltd., priority 1984, dated 1986).
# Entries after “also recorded” stand apart in the source; their conditions may differ. Read-outs that look alike come from different tables or passages of the source.
# How the values were obtained:
# Assay type in all cases: cell-based
# [1] = system: Pseudomonas aeruginosa KM338; assay: Antibacterial activity (MIC, growth in BHI medium); design: key to Antibacterial activity (growth): -: grow; ±: slightly grow; +: not grow
# Procedure: To a test tube was charged 3.8 ml of Brain Heart Infusion (BHI) medium, and 100 μl of a sample solution containing oleanolic, ursolic or glycyrrhetic acid and 100 μl of pre-incubated culture of bacterium selected from those listed below were added thereto. The mixture was incubated at 37° C. and then allowed to stand over night. The extent of the growth of bacterium was observed after two or five days. The MIC value was determined for each sample and summarized in Table 2. |Pseudomonas aeruginosa KM338
# [2] = system: Staphylococcus aureus 209P; assay: Antibacterial activity (MIC, growth in BHI medium); design: key to Antibacterial activity (growth): -: grow; ±: slightly grow; +: not grow
# Procedure: To a test tube was charged 3.8 ml of Brain Heart Infusion (BHI) medium, and 100 μl of a sample solution containing oleanolic, ursolic or glycyrrhetic acid and 100 μl of pre-incubated culture of bacterium selected from those listed below were added thereto. The mixture was incubated at 37° C. and then allowed to stand over night. The extent of the growth of bacterium was observed after two or five days. The MIC value was determined for each sample and summarized in Table 2. |Staphylococcus aureus […]
# [3] = system: Streptococcus mutans OMZ 176; assay: Antibacterial activity (MIC, growth in BHI medium); design: key to Antibacterial activity (growth): -: grow; ±: slightly grow; +: not grow
# Procedure: (§1) To a test tube was charged 3.8 ml of Brain Heart Infusion (BHI) medium, and 100 μl of a sample solution containing oleanolic, ursolic or glycyrrhetic acid and 100 μl of pre-incubated culture of bacterium selected from those listed below were added thereto. The mixture was incubated at 37° C. and then allowed to stand over night. The extent of the growth of bacterium was observed after two or five days.
# Streptococcus mutans OMZ 176
# Esherichia coli K12 = assay: Antibacterial activity (MIC, growth in BHI medium); design: key to Antibacterial activity (growth): -: grow; ±: slightly grow; +: not grow
# Procedure: as §1
# Esherichia coli K12 (Gram negative)
# [4] = system: Streptococcus salivarius ATCC 9222; assay: Antibacterial activity (MIC, growth in BHI medium); design: key to Antibacterial activity (growth): -: grow; ±: slightly grow; +: not grow
# Procedure: To a test tube was charged 3.8 ml of Brain Heart Infusion (BHI) medium, and 100 μl of a sample solution containing oleanolic, ursolic or glycyrrhetic acid and 100 μl of pre-incubated culture of bacterium selected from those listed below were added thereto. The mixture was incubated at 37° C. and then allowed to stand over night. The extent of the growth of bacterium was observed after two or five days. The MIC value was determined for each sample and summarized in Table 2. |Streptococcus salivarius ATCC 9222
# [5] = system: Bacillus megaterium QM B1551; assay: Antibacterial activity (MIC, growth in BHI medium); design: key to Antibacterial activity (growth): -: grow; ±: slightly grow; +: not grow
# Procedure: To a test tube was charged 3.8 ml of Brain Heart Infusion (BHI) medium, and 100 μl of a sample solution containing oleanolic, ursolic or glycyrrhetic acid and 100 μl of pre-incubated culture of bacterium selected from those listed below were added thereto. The mixture was incubated at 37° C. and then allowed to stand over night. The extent of the growth of bacterium was observed after two or five days. The MIC value was determined for each sample and summarized in Table 2. |Bacillus megaterium QM B1551
# [6] = system: Serratia marcescens IFO 12648; assay: Antibacterial activity (MIC, growth in BHI medium); design: key to Antibacterial activity (growth): -: grow; ±: slightly grow; +: not grow
# Procedure: To a test tube was charged 3.8 ml of Brain Heart Infusion (BHI) medium, and 100 μl of a sample solution containing oleanolic, ursolic or glycyrrhetic acid and 100 μl of pre-incubated culture of bacterium selected from those listed below were added thereto. The mixture was incubated at 37° C. and then allowed to stand over night. The extent of the growth of bacterium was observed after two or five days. The MIC value was determined for each sample and summarized in Table 2. |Serratia marcescens IFO 12648
# bacterial cells = assay: Adherence of bacterial cells to the surface of an extracted tooth; conditions: extracted tooth suspended in a culture medium containing sucrose
# [7] = system: S. mutans OMZ 176 (serotype d); assay: microbe, parasite or virus in culture; conditions: for minimal effective concentration / inhibition at 10 µg/mL / inhibition at 20 µg/mL / inhibition at 30 µg/mL / inhibition at 50 µg/mL / inhibition at 100 µg/mL: Streptococcus mutans; for minimal effective concentration: 20 h, read-out: concentration at which adherence of the bacterial cells is inhibited; for inhibition at 10 µg/mL / inhibition at 20 µg/mL / inhibition at 30 µg/mL / inhibition at 50 µg/mL / inhibition at 100 µg/mL: read-out: Adherence-inhibiting activity (AIP)
# Procedure: The adherence-inhibiting activity of the triterpenes of the formula (I) was measured using an inner wall of a test tube in place of the surface of a tooth.
# To 2.9 ml of BHI medium containing 5% sucrose in a test tube (i) are added 30 μl of a sample solution prepared by dissolving a compound of: the formula (I) in H2 O or dimethylsulfoxide (DMSO) and 100 μl of culture medium containing S. mutans OMZ 176 (serotype d) which was preincuvated at 37° C. for 24 hours in BHI medium, and the mixture is incubated at 37° C. for 20 hours, with the test tube being maintained at a slant of 30°. The test tube is revolved gently two or three times and the supernatant is transferred to another test tube (ii). To the first test tube (i) is added 3 ml of 50 mM phosphate buffer (pH 7.5), and the test tube is gently revolved two or three times. The resultant supernatant is transferred to the third test tube (iii). The test tubes (ii) and (iii) are each centrifuged and respective supernatants are discarded. To each of the test tubes (i), (ii) and (iii) is added 3 ml of 0.5M NaOH, and the test tubes are shaken to suspend bacterial cells. Absorbance of the resulting suspension is measured at 660 nm. The absorbances obtained with respect to the test tube (i), (ii) and (iii) are represented by Ab(i), Ab(ii) and Ab(iii), respectively. Ab(i) reflects the amount of the bacterial cells adhered to the wall of the test tube and Ab(ii) and Ab(iii) correspond to the amount of the bacterial cells not adhered to the wall.
# The same procedure is repeated using 30 μl of distilled water or DMSO in place of the sample solution to obtain a control. The absorbance of the control is represented by Ab(Cont.).
# Adherence percentage of bacteria is calculated from the following equation. [formula]
# Adherence inhibitory percentage (AIP) is calculated using the adherence percentage according to the following equation. [formula]
# The magnitude of adherence-inhibiting activity of each of the samples is shown, in Table 3, by the use of the following symbols: […]
# [8] = text statement, listed as pomolic acid
smiles,measurement,setting,value
CC1(C)[C@@H](O)CC[C@]2(C)[C@H]3C(=O)C=C4[C@@H]5C[C@@](C)(C(=O)O)CC[C@]5(C)CC[C@@]4(C)[C@]3(C)CC[C@@H]12 [Glycyrrhetic acid],Antibacterial activity (growth),[1]; 10 μg/ml,-
same,Antibacterial activity (growth),[1]; 25 μg/ml,-
same,Antibacterial activity (growth),[1]; 50 μg/ml,-
same,Antibacterial activity (growth),[1]; 100 μg/ml,-
same,Antibacterial activity (growth),[1]; 200 μg/ml,-
same,Antibacterial activity (growth),[1]; 400 μg/ml,-
same,MIC,"[1]; KM338, Pseudomonas aeruginosa, BHI, 37° C., read-out: MIC (minimum inhibitory concentration)",> 400 µg/mL
same,antibacterial action on Pseudomonas aeruginosa (in words),[1]; text statement,remain unaffected
same,Antibacterial activity (growth),[2]; 10 μg/ml,-
same,Antibacterial activity (growth),[2]; 25 μg/ml,-
same,Antibacterial activity (growth),[2]; 50 μg/ml,-
same,Antibacterial activity (growth),[2]; 100 μg/ml,-
same,Antibacterial activity (growth),[2]; 200 μg/ml,-
same,Antibacterial activity (growth),[2]; 400 μg/ml,-
same,MIC,"[2]; 209P, Staphylococcus aureus, BHI, 37° C., read-out: MIC (minimum inhibitory concentration)",400 µg/mL
same,antibacterial action on Staphylococcus aureus (in words),[2]; text statement,remain unaffected
same,antibacterial activity to S. mutans (in words),[3],exhibits a selective antibacterial activity on S. mutans and Bacillus megaterium; also recorded: very strong and selective antibacterial activity to S. mutans
same,Antibacterial activity (growth),[3]; 10 μg/ml,+
same,Antibacterial activity (growth),[3]; 25 μg/ml,+
same,Antibacterial activity (growth),[3]; 50 μg/ml,+
same,Antibacterial activity (growth),[3]; 100 μg/ml,+
same,Antibacterial activity (growth),[3]; 200 μg/ml,+
same,Antibacterial activity (growth),[3]; 400 μg/ml,+
same,MIC (minimum inhibitory concentration),"[3]; Streptococcus mutans OMZ 176, BHI, 37° C.",lower than 10 μg/ml
same,MIC,"[3]; Streptococcus mutans, OMZ176, Streptococcus mutans OMZ 176, BHI, 37° C., read-out: MIC (minimum inhibitory concentration)",10 µg/mL
same,Antibacterial activity (growth),Esherichia coli K12; 10 μg/ml,-
same,Antibacterial activity (growth),Esherichia coli K12; 25 μg/ml,-
same,Antibacterial activity (growth),Esherichia coli K12; 50 μg/ml,-
same,Antibacterial activity (growth),Esherichia coli K12; 100 μg/ml,-
same,Antibacterial activity (growth),Esherichia coli K12; 200 μg/ml,-
same,Antibacterial activity (growth),Esherichia coli K12; 400 μg/ml,-
same,MIC,"Esherichia coli K12; Esherichia coli, BHI, 37° C., read-out: MIC (minimum inhibitory concentration)",> 400 µg/mL
same,antibacterial action on Escherichia coli (in words),Esherichia coli K12; text statement,remain unaffected
same,Antibacterial activity (growth),[4]; 10 μg/ml,-
same,Antibacterial activity (growth),[4]; 25 μg/ml,-
same,Antibacterial activity (growth),[4]; 50 μg/ml,-
same,Antibacterial activity (growth),[4]; 100 μg/ml,-
same,Antibacterial activity (growth),[4]; 200 μg/ml,-
same,Antibacterial activity (growth),[4]; 400 μg/ml,±
same,MIC,"[4]; ATCC9222, Streptococcus salivarius, BHI, 37° C., read-out: MIC (minimum inhibitory concentration)",> 400 µg/mL
same,antibacterial action on Streptococcus salivarius (in words),[4]; text statement,remain unaffected
same,Antibacterial activity (growth),[5]; 10 μg/ml,-
same,Antibacterial activity (growth),[5]; 25 μg/ml,+
same,Antibacterial activity (growth),[5]; 50 μg/ml,+
same,Antibacterial activity (growth),[5]; 100 μg/ml,+
same,Antibacterial activity (growth),[5]; 200 μg/ml,+
same,Antibacterial activity (growth),[5]; 400 μg/ml,+
same,MIC,"[5]; Priestia megaterium, QMB1551, Bacillus megaterium, BHI, 37° C., read-out: MIC (minimum inhibitory concentration)",25 µg/mL
same,antibacterial activity on Bacillus megaterium (in words),[5]; text statement,exhibits a selective antibacterial activity on S. mutans and Bacillus megaterium
same,Antibacterial activity (growth),[6]; 10 μg/ml,-
same,Antibacterial activity (growth),[6]; 25 μg/ml,-
same,Antibacterial activity (growth),[6]; 50 μg/ml,-
same,Antibacterial activity (growth),[6]; 100 μg/ml,-
same,Antibacterial activity (growth),[6]; 200 μg/ml,-
same,Antibacterial activity (growth),[6]; 400 μg/ml,-
same,MIC,"[6]; IFO12648, Serratia marcescens, BHI, 37° C., read-out: MIC (minimum inhibitory concentration)",> 400 µg/mL
same,antibacterial action on Serratia marcescens (in words),[6]; text statement,remain unaffected
CC1(C)CC[C@]2(C(=O)O)CC[C@]3(C)C(=CC[C@@H]4[C@@]5(C)CC[C@H](O)[C@@](C)(CO)[C@@H]5CC[C@]43C)[C@@H]2C1 [Hederagenin],adherence of bacterial cells to the surface of an extracted tooth,bacterial cells,completely inhibited
same,adherence-inhibiting activity (in words),[7],have both of the adherence-inhibiting activity and the selective antibacterial activity to S. mutans; also recorded: have both activities
same,minimal effective concentration,[7],10 µg/mL
same,inhibition at 10 µg/mL,[7],< 25%
same,inhibition at 20 µg/mL,[7],> 50%
same,inhibition at 30 µg/mL,[7],> 50%
same,inhibition at 50 µg/mL,[7],> 50%
same,inhibition at 100 µg/mL,[7],> 50%
same,antibacterial activity to S. mutans (in words),[3],almost the same antibacterial activity as oleanolic acid; also recorded: have both of the adherence-inhibiting activity and the selective antibacterial activity to S. mutans; also recorded: have both activities
same,antibacterial activity at 10 μg/ml (in words),[3]; 10 μg/ml,ineffective for exhibiting antibacterial activity
C[C@@H]1CC[C@]2(C(=O)O)CC[C@]3(C)C(=CC[C@@H]4[C@@]5(C)CC[C@H](O)C(C)(C)[C@@H]5CC[C@]43C)[C@@H]2[C@]1(C)O [Pomolic acid],adherence of bacterial cells to the surface of an extracted tooth,bacterial cells,completely inhibited
same,minimal effective concentration,[7],10 µg/mL
same,inhibition at 10 µg/mL,[7],< 25%
same,inhibition at 20 µg/mL,[7],> 50%
same,inhibition at 30 µg/mL,[7],> 50%
same,inhibition at 50 µg/mL,[7],> 50%
same,inhibition at 100 µg/mL,[7],> 50%
same,adherence-inhibiting activity (in words),[7]; [8],have both of the adherence-inhibiting activity and the selective antibacterial activity to S. mutans; also recorded: have both activities
same,antibacterial activity at 10 μg/ml (in words),[3]; 10 μg/ml,ineffective for exhibiting antibacterial activity
same,antibacterial activity to S. mutans (in words),[3]; text statement,almost the same antibacterial activity as oleanolic acid
same,antibacterial activity to S. mutans (in words),[3]; [8],have both of the adherence-inhibiting activity and the selective antibacterial activity to S. mutans; also recorded: have both activities
